Data published in paper PMC11597202, “Novel Thiazole-Fused [4,5-g] or [5,4-g]Quinazolin-8-ones and Their Quinazoline Analogues: Synthesis and Biological Evaluation” (Pharmaceuticals, 2024).

Legend:
seven tumor cell lines = assay: In vitro cytotoxic assay, whole panel of cancer cell lines; format: cell-based, human; conditions: 48 h; for IC50: Homo sapiens, lowest to highest IC50 among the seven cancer cell lines, read-out: IC50 span over the cancer cell lines
Procedure: Skin normal fibroblastic cells were purchased from Lonza (Basel, Switzerland). […] All culture media were supplemented by 10% of FBS, 1% of penicillin–streptomycin and 2 mM glutamine.
Chemicals were solubilized in DMSO at a concentration of 10 mM (stock solution) and diluted in culture medium to the desired final concentrations. […] Cells were plated in 96-well plates (4000 cells/well). Twenty-four hours after seeding, the cells were exposed to chemicals. […] Image acquisition and analysis were performed using a Cellomics ArrayScan VTI/HCS Reader (ThermoScientific, Les Ulis, France). The survival percentages were calculated as the percentage of cell number after compound treatment over cell number after DMSO treatment. The relative IC50 values were calculated using the curve fitting XLfit 5.5.0.5 (idbs) integrated in Microsoft Excel as an add-on.
4.3.1. Cell culture. Skin normal fibroblastic cells are purchased from Lonza (Basel, Switzerland). Huh7- […]
from ATCC (American Type Culture Collection). […]
supplemented by 10% of FBS, 1% of penicillin-streptomycin and 2 mM glutamine.
4.3.2. Cytotoxic assay. Chemicals were solubilized in DMSO at a concentration of 10 mM (stock solution) and diluted in culture medium to the desired final concentrations. The dose effect cytotoxic assays (IC50 determination) were performed by increasing the concentrations of each chemical (final well […]
Cells were plated in 96-well plates
(4000 cells/well). Twenty-four hours after seeding, cells were exposed to chemicals. After 48h of treatment, cells were washed in PBS and fixed in cooled 90% ethanol/5% acetic acid for 20 min and the […]
Image acquisition and analysis were performed using a Cellomics ArrayScan VTI/HCS Reader (ThermoScientific). The survival percentages were calculated as the percentage of cell number after compound treatment over cell number after DMSO treatment. The relative IC50 were calculated using the curve fitting XLfit 5.5.0.5 (idbs) integrated in Microsoft Excel as an add-on. The 4 Parameter Logistic Model or Sigmoidal Dose-Response Model describing the sigmoid-shaped response pattern was used (fit = (A+[(B-A)/(1+[(C/x)^D])]) where fit is the response and X is the tested concentration of the compound. The lower asymptote is A (also referred to as the bottom of the curve or lower plateau or the min) and the upper asymptote is B (also referred to as the top of the curve or upper plateau or the max). The slope of the linear part of the curve is described by the factor D. The parameter C is the concentration corresponding to the response midway between A and B. C is called “relative IC50” because it refers to the maximum response obtained by a […]
The results are represented as the mean ± standard error (SE) calculated from at least three independent experiments.

DYRK1A = conditions: in Figure 3; cited from earlier work

**Q.** With COC(=N)c1nc2cc3c(=O)n(Cc4ccccc4)cnc3cc2s1 [Compound 6a, Methyl 7-benzyl-8-oxo-7,8-dihydrothiazolo[4,5-g]quinazoline-2-carbimidate] as the molecule, how does the IC50 (seven tumor cell lines) read?
**A.** 17000 to 27000 nM

**Q.** Which IC50 (seven tumor cell lines) does the source give for COC(=N)c1nc2cc3ncn(Cc4ccccc4)c(=O)c3cc2s1 [Compound 6b, Methyl 7-benzyl-8-oxo-7,8-dihydrothiazolo[5,4-g]quinazoline-2-carbimidate] here?
**A.** 1000 to 3000 nM

**Q.** With COC(=N)c1nc2c(ccc3c(=O)n(Cc4ccccc4)cnc32)s1 [Compound 6c, Methyl 7-benzyl-6-oxo-6,7-dihydrothiazolo[5,4-h]quinazoline-2-carbimidate] as the molecule, how does the IC50 (seven tumor cell lines) read?
**A.** 3000 to 13000 nM

**Q.** For COC(=N)c1nc2ccc3c(=O)n(Cc4ccccc4)cnc3c2s1 [Compound 6d, Methyl 7-benzyl-6-oxo-6,7-dihydrothiazolo[4,5-h]quinazoline-2-carbimidate], which IC50 (seven tumor cell lines) is on record?
**A.** 2000 to 11000 nM

**Q.** For COC(=N)c1nc2cc3ncnc(Nc4ccc(OC)cc4F)c3cc2s1 [Compound 15b, Methyl 8-[(2-fluoro-4-methoxyphenyl)amino]thiazolo[5,4-g]quinazoline-2-carbimidate], which “Cytotoxicity over the cell lines studied (in words)” value (seven tumor cell lines; 0.1-25 μM) is on record?
**A.** did not show detectable cytotoxicity

**Q.** Which IC50 (DYRK1A) does the source give for COC(=N)c1nc2ccc3ncn(Cc4ccccc4)c(=O)c3c2s1 [Compound I, methyl 8-benzyl-9-oxo-8,9-dihydrothiazolo[5,4-f]quinazoline-2-carbimidate, reference compound] here?
**A.** 300 nM

**Q.** For COC(=N)c1nc2ccc3ncnc(Nc4ccc(OC)cc4F)c3c2s1 [Compound II, methyl 9-[(2-fluoro-4-methoxyphenyl)amino]thiazolo[5,4-f]quinazoline-2-carbimidate, reference compound], which IC50 (DYRK1A) is on record?
**A.** 0.36 nM
